# Measurements reported in PubChem BioAssay (NCI).
#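 Interpolation was linear, between the two tested concentrations surrounding the appropriate level; five concentrations were tested over 48 hours in 96-well plates. The concentration for 50% growth inhibition is given as GI50. TGI marks complete inhibition of growth.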
# Experiments:
# Assay in all cases: growth of human tumour cells (NCI), 48 h
# [1] = test system: OVCAR-5 ovarian
# [2] = test system: HCT-15 colon
# [3] = test system: KM12 colon
# [4] = test system: HT29 colon
# [5] = test system: OVCAR-3 ovarian
# [6] = test system: SF-295 CNS
# [7] = test system: MDA-MB-231 breast
# [8] = test system: HCT-116 colon
# [9] = test system: CAKI-1 renal
# [10] = test system: UO-31 renal
# [11] = test system: SNB-75 CNS
# [12] = test system: OVCAR-8 ovarian
# [13] = test system: EKVX NSCLC
# [14] = test system: SW-620 colon
# [15] = test system: SF-539 CNS
# [16] = test system: 786-0 renal
# [17] = test system: PC-3 prostate
# [18] = test system: SK-MEL-2 melanoma
# [19] = test system: SK-MEL-28 melanoma
# [20] = test system: ACHN renal
# [21] = test system: OVCAR-4 ovarian
# [22] = test system: MDA-MB-435
# [23] = test system: SN12C renal
# [24] = test system: NCI-H226 lung
# [25] = test system: SNB-19 CNS
# [26] = test system: HS 578T breast
# [27] = test system: BT-549 breast
# [28] = test system: NCI-H23 lung
# [29] = test system: HOP-62 NSCLC
# [30] = test system: T-47D breast
# [31] = test system: HL-60(TB) leukemia
# [32] = test system: SK-OV-3 ovarian
# [33] = test system: SR leukemia
# [34] = test system: NCI-H460 lung
# [35] = test system: DU-145 prostate
# [36] = test system: MOLT-4 leukemia
# [37] = test system: CCRF-CEM leukemia
# [38] = test system: SK-MEL-5 melanoma
# [39] = test system: RPMI-8226 leukemia
# [40] = test system: COLO 205 colon
# [41] = test system: M14 melanoma
# [42] = test system: A549 NSCLC
# [43] = test system: U251 CNS
# [44] = test system: K-562 leukemia
# [45] = test system: TK-10 renal
# [46] = test system: MALME-3M melanoma
# [47] = test system: SF-268 CNS
# [48] = test system: MCF7 breast
# [49] = test system: LOX IMVI melanoma
# [50] = test system: NCI-H522 lung
# [51] = test system: NCI/ADR-RES ovarian
# [52] = test system: HOP-92 NSCLC
# [53] = test system: UACC-257 melanoma
# [54] = test system: A498 renal
# [55] = test system: IGROV1 ovarian
# [56] = test system: UACC-62 melanoma
# [57] = test system: RXF 393 renal
structure (smiles),measurement,setting,value
O=C(COc1cccc(/C=C2\COc3ccccc3C2=O)c1)c1ccccc1,GI50,[1],2800 nM
same,TGI,[1],7.23 µM
same,GI50,[2],1850 nM
same,TGI,[2],4.45 µM
same,GI50,[3],1920 nM
same,TGI,[3],3.65 µM
same,GI50,[4],2040 nM
same,TGI,[4],4.5 µM
same,GI50,[5],2390 nM
same,TGI,[5],5.12 µM
same,GI50,[6],1930 nM
same,TGI,[6],15.8 µM
same,GI50,[7],10.6 µM
same,TGI,[7],22.9 µM
same,GI50,[8],2120 nM
same,TGI,[8],4.08 µM
same,GI50,[9],3.32 µM
same,TGI,[9],12.7 µM
same,GI50,[10],1770 nM
same,TGI,[10],3.26 µM
same,GI50,[11],11.5 µM
same,TGI,[11],24.7 µM
same,GI50,[12],3.35 µM
same,TGI,[12],11.2 µM
same,GI50,[13],7.98 µM
same,TGI,[13],20.6 µM
same,GI50,[14],1660 nM
same,TGI,[14],3.83 µM
same,GI50,[15],15.6 µM
same,TGI,[15],29 µM
same,GI50,[16],5.85 µM
same,TGI,[16],19 µM
same,GI50,[17],2110 nM
same,TGI,[17],5.16 µM
same,GI50,[18],2750 nM
same,TGI,[18],9.68 µM
same,GI50,[19],3.24 µM
same,TGI,[19],10.7 µM
same,GI50,[20],2140 nM
same,TGI,[20],5.18 µM
same,GI50,[21],3.84 µM
same,TGI,[21],15.4 µM
same,GI50,[22],3.14 µM
same,TGI,[22],10.7 µM
same,GI50,[23],4.7 µM
same,TGI,[23],19.8 µM
same,GI50,[24],12.3 µM
same,TGI,[24],25.4 µM
same,GI50,[25],11.8 µM
same,TGI,[25],24 µM
same,GI50,[26],2340 nM
same,TGI,[26],> 100 µM
same,GI50,[27],5.3 µM
same,TGI,[27],22.2 µM
same,GI50,[28],4.47 µM
same,TGI,[28],16.1 µM
same,GI50,[29],5.24 µM
same,TGI,[29],18.2 µM
same,GI50,[30],2530 nM
same,TGI,[30],6.04 µM
same,GI50,[31],5.85 µM
same,TGI,[31],29.2 µM
same,GI50,[32],15.2 µM
same,TGI,[32],29 µM
same,GI50,[33],2170 nM
same,TGI,[33],6.66 µM
same,GI50,[34],12.3 µM
same,TGI,[34],24.9 µM
same,GI50,[35],6.11 µM
same,TGI,[35],17.4 µM
same,GI50,[36],3.26 µM
same,TGI,[36],11.1 µM
same,GI50,[37],1980 nM
same,TGI,[37],7.62 µM
same,GI50,[38],2830 nM
same,TGI,[38],7.63 µM
same,GI50,[39],1840 nM
same,TGI,[39],4.85 µM
same,GI50,[40],2930 nM
same,TGI,[40],10.3 µM
same,GI50,[41],3.12 µM
same,TGI,[41],14 µM
same,GI50,[42],15.7 µM
same,TGI,[42],49.7 µM
same,GI50,[43],1650 nM
same,TGI,[43],3.03 µM
same,GI50,[44],2050 nM
same,TGI,[44],5.65 µM
same,GI50,[45],3.6 µM
same,TGI,[45],11.2 µM
same,GI50,[46],13.1 µM
same,TGI,[46],28.2 µM
same,GI50,[47],3.23 µM
same,TGI,[47],10.2 µM
same,GI50,[48],1980 nM
same,TGI,[48],4.27 µM
same,GI50,[49],1660 nM
same,TGI,[49],3.12 µM
same,GI50,[50],1810 nM
same,TGI,[50],3.79 µM
same,GI50,[51],3.26 µM
same,TGI,[51],11.8 µM
same,GI50,[52],2940 nM
same,TGI,[52],16.8 µM
same,GI50,[53],6.03 µM
same,TGI,[53],18.6 µM
same,GI50,[54],266 nM
same,TGI,[54],6.78 µM
same,GI50,[55],2180 nM
same,TGI,[55],3.96 µM
same,GI50,[56],3000 nM
same,TGI,[56],10.2 µM
same,GI50,[57],2480 nM
same,TGI,[57],9.29 µM
